Results: US20140235630A1, “COMPOSITIONS AND METHODS FOR THE TREATMENT OF PROLIFERATIVE DISEASES” (Beth Israel Deaconess Medical Center, Inc., priority 2011, published 2014)
Several values for one entry are separate records, joined by “and”; a condition that tells them apart may be missing. Equal entries are not always repeated.

What was measured:
[1] = test system: BRCA1-deleted mammary tumors of MMTV-CreBRCA1^f/fp53+/− mice; test: 18FDG PET-CT scanning of tumor-bearing mice; assay type: in vivo, mouse; conditions: for FDG-uptake of treated tumors: Compound B-treated versus Compound A or combination
Protocol: All animal experiments were conducted in accordance with IACUC-approved protocols at Beth Israel Deaconess Medical Center, Boston, and at the University of Vall d'Hebron, Barcelona, Spain. Female MMTV-CreBRCA1^f/fp53+/− mice were obtained by breeding BRCA1 conditional knockout mice from the NIH repository (01XC8, strain C57BL/6) (Xu et al. Nat. Genet., 22: 37-43, 1999); with MMTV-Cre (Jackson Laboratory B6129-TgN(MMTV-Cre)4Mam) (Wagner et al. Nucleic Acids Res., 25: 4323-4330, 1997) and p53 knockout (Taconic Farms, P53N12-M, C57BL/6) (Donehower et al. Nature, 356: 215-221, 1992). At the time of the study, mice had been inbred for 4 years (>7 generations). The floxed or wild type status of Brca1, the presence of the MMTV-Cre transgene and the p53 heterozygosity were determined by PCR. Mice were examined for the occurrence of tumors twice weekly. When tumormetrics were performed, the length and width of the tumor was determined using calipers, and the tumor volume was determined (width^2×length/2). Tumor volume was used as a measure of growth and was recorded as ratio to tumor volume at diagnosis. Tumor doubling times were calculated using the functions of the best fit curves for all data points in each treatment modality. 5-(2,6-dimorpholinopyrimidin-4-yl)-4-(trifluoromethyl)pyridin-2-amine (Compound A) was resuspended in 5% Methylcellulose solution (Fluka) and administered via oral gavage at 50 mg/kg/day or 30 mg/kg/day. 4-[[3-[4-(cyclopropanecarbonyl)piperazine-1-carbonyl]-4-fluorophenyl]methyl]-2H-phthalazin-1-one (Compound B) was resuspended for intraperitoneal administration as described (Rottenberg et al. Proc. Natl. Acad. Sci. USA., 105: 17079-17084, 2008) and dosed at 50 mg/kg/day. For patient-derived tumor grafts consent for tumor use was obtained from patients under a protocol approved by the Vall d'Hebron Hospital Clinical Investigation Ethical Committee. Tumors were subcutaneously implanted in 6-week-old female HsdCpb:NMRI-Foxn1nu mice (Harlan Laboratories, Italy) Animals were supplemented with 1 μM estradiol (Sigma) in the drinking water. After tumor graft growth, tumor tissue was re-implanted into recipient mice, which were randomized upon implant growth.
0.3 to 0.4 mCi of fluorine-18-deoxyglucose were injected intravenously through the retroorbital vein of the anesthetized mouse. After a “washout” period of 1 hour the mouse was imaged on a NanoPET/CT (Bioscan/Mediso) scanner. The NanoPET/CT is a high-resolution small-animal multimodality scanner consisting of 12 lutetium yttrium oxyorthosilicate (LYSO) detector blocks. The blocks comprise a total of 39,780 crystals each with a dimension of 1.2×1.2×13 mm^3.
Images were acquired in three dimensions. The mice remained supine and maintained their position throughout the procedure. First, a CT scan was performed and second, a whole-body ^18F-FDG PET emission scan was acquired covering the same area as the CT scan. Counts per minute (cpm) were obtained, converted to mCi, and values were normalized for ROI volume and injected dose. In order to correct for metabolic variability between exams and to determine tumor-specific uptake changes, FDG-uptake rates were corrected for cardiac FDG-uptake (μCi injected/voxels^tumor)/(μCi/μCi injected/voxels^heart). For studies involving repeat scanning, the change in tumor-specific FDG-uptake was determined in percent (1−(FDG-uptake^post/FDG-uptake^pre)×100) Animals were housed in the Longwood SAIF satellite animal facility between scans.

[2] = test system: spontaneous tumors of MMTV-CreBRCA1^f/fp53+/− mice; test: Tumor growth (relative tumor volume, doubling time) in spontaneous BRCA1-related breast cancer model; assay type: in vivo, mouse; conditions: for tumor doubling time: Compound A 50 or 30 mg/kg/day gavage (pooled), Compound B 50 mg/kg/day i.p., vehicle 5 days; for prolongation of tumor doubling time versus vehicle control: versus 5 days with vehicle
Protocol: FIGS. 6A-6D are graphs showing the synergistic effect of a PI3K inhibitor (Compound A) and PARP inhibitor (Compound B) in treating breast cancer. Trendlines (bold lines) were calculated using all data points to determine best fit and show the relative tumor growth in the vehicle control cohort (as in FIG. 6A) and in the Compound A cohort (as in FIG. 6B). The functions of the best-fit curves were used to determine tumor doubling times for all three treatment modalities and controls. Tumor-bearing MMTV-CreBRCA1^f/fp53+/− were treated with either vehicle control (6A); Compound A (6B, 50 mg/kg/day (n=11) or 30 mg/kg/day (n=10)); Compound B (6C, 50 mg/kg/day (n=8)); or the combination of Compound A and Compound B (6D, Compound A 50 mg/kg/day+Compound B 50 mg/kg/day (n=8) or Compound A 30 mg/kg/day+Compound B 50 mg/kg/day (n=7)) and tumor volumes were measured every 2-3 days using calipers.
FIG. 7 is a graph showing the relative tumor volume (RTV) over time of tumor-bearing MMTV-CreBRCA1^f/fp53+/− mice treated with a control vehicle (n=3), PI3Kα-specific inhibitor Compound C alone (n=7), or a combination of pan-PARP inhibitor Compound B and PI3Kα-specific inhibitor Compound C (n=6). The data of the control and Compound C alone treatment groups are represented by trendlines calculated using all data points to determine best fit. The data of the combination treatment group are individually represented.
All animal experiments were conducted in accordance with IACUC-approved protocols at Beth Israel Deaconess Medical Center, Boston, and at the University of Vall d'Hebron, Barcelona, Spain. Female MMTV-CreBRCA1^f/fp53+/− mice were obtained by breeding BRCA1 conditional knockout mice from the NIH repository (01XC8, strain C57BL/6) (Xu et al. Nat. Genet., 22: 37-43, 1999); with MMTV-Cre (Jackson Laboratory B6129-TgN(MMTV-Cre)4Mam) (Wagner et al. Nucleic Acids Res., 25: 4323-4330, 1997) and p53 knockout (Taconic Farms, P53N12-M, C57BL/6) (Donehower et al. Nature, 356: 215-221, 1992). At the time of the study, mice had been inbred for 4 years (>7 generations). The floxed or wild type status of Brca1, the presence of the MMTV-Cre transgene and the p53 heterozygosity were determined by PCR. Mice were examined for the occurrence of tumors twice weekly. When tumormetrics were performed, the length and width of the tumor was determined using calipers, and the tumor volume was determined (width^2×length/2). Tumor volume was used as a measure of growth and was recorded as ratio to tumor volume at diagnosis. Tumor doubling times were calculated using the functions of the best fit curves for all data points in each treatment modality. […]

[3] = after 2 weeks of continued treatment
[4] = within 48 hours of instituting treatment

Row | SMILES | FDG-uptake of treated tumors [1] | median decrease in FDG-uptake [1, 3] [%] | range of decrease in FDG-uptake [1, 3] | decrease in 18FDG-uptake, individual tumors of one mouse ([1]; within 48 hours after start, 50 mg/kg/day by gavage, four simultaneous tumors, 50 mg/kg/day) | median decrease in FDG-uptake [1, 4] [%] | range of decrease in FDG-uptake [1, 4] | tumor doubling time [2] [days] | prolongation of tumor doubling time versus vehicle control [2]
1 | Nc1cc(C(F)(F)F)c(-c2cc(N3CCOCC3)nc(N3CCOCC3)n2)cn1 [Compound A, 5-(2,6-dimorpholinopyrimidin-4-yl)-4-(trifluoromethyl)pyridin-2-amine] | strongly reduced FDG-uptake | 54 | 45.5-70.5% | 45% and 64% (2×) and 56% | 46.7 | 38.1-92.3 | 26 | 5 fold
2 | O=C(c1cc(Cc2n[nH]c(=O)c3ccccc23)ccc1F)N1CCN(C(=O)C2CC2)CC1 [Compound B, 4-[[3-[4-(cyclopropanecarbonyl)piperazine-1-carbonyl]-4-fluorophenyl]methyl]-2H-phthalazin-1-one, reference compound] | increased FDG-uptake |  |  |  |  |  | 16 | three-fold
